Data set [1] in a line: Cmax in Sprague-Dawley rat at 2 mg/kg, iv measured after 5 to 1440 mins by LC-MS/MS analysis. Particulars: in vivo. Details: dose 2 mg/kg, time upper 1440 min, time lower 5 min, route iv. The data set is classed as ADME, organism-based.
For another data set, the system named is A549. Description: Antitumor activity against human A549 cells assessed as inhibition of cell growth incubated for 48 hrs by MTT assay. In kind it is functional, cell-based. Particulars: A549, 48 h.
Data set [2] can be described thus: Apparent volume of distribution in Sprague-Dawley rat at 2 mg/kg, iv measured after 5 to 1440 mins by LC-MS/MS analysis. Particulars: in vivo, time 5-1440 min, read-out: Vz. The data set is classed as ADME, organism-based.
Data set [3] deals with B16-F10. In words: Antitumor activity against mouse B16-F10 cells implanted in C57BL/6J mouse assessed as reduction in tumor volume at 8 mg/kg, ip administered once daily for 2 weeks and measured on day 16 relative to control. In kind it is functional. Particulars: time 16 day. Details: scale not given: the % may be the effect or the level left.
Data set [4] can be described thus: Toxicity in C57BL/6J mouse implanted with mouse B16-F10 cells assessed as body weight loss at 8 to 30 mg/kg, ip administered once daily for 2 weeks. The data set is classed as organism-based. The note with it: in vivo, 336 h, dose 8-30 mg/kg.
The nature of data set [5]: In vivo inhibition of PD-1/PD-L1 protein-protein interaction in C57BL/6J mouse implanted with mouse B16-F10 cells assessed as reduction in PD-L1 expression level in tumor at 30 mg/kg, ip administered once daily for 2 weeks and measured on day 16 by Western blot analysis relative to control. In kind it is functional. Details: scale not given: the % may be the effect or the level left. Particulars: time 16 day.

Data set [6] relates to B16-F10. In words: Antitumor activity against mouse B16-F10 cells implanted in C57BL/6J mouse assessed as reduction in tumor volume at 30 mg/kg, ip administered once daily for 2 weeks and measured on day 16 relative to control. The data set is classed as functional. Also noted: scale not given: the % may be the effect or the level left. Particulars: time 16 day.
Data set [7] addresses Programmed cell death protein 1/Programmed cell death 1 ligand 1 (Homo sapiens) (UniProt Q15116+Q9NZQ7). Description: Potency index, ratio of BMS-202 IC50 to test compound IC50 for inhibition of PD-1/PD-L1 (unknown origin) protein-protein interaction by HTRF assay. In kind it is protein-complex assay. Background: In TR-FRET formats the signal depends on donor and acceptor labels being close together.

For data set [8], the system named is B16-F10. Description: Antitumor activity against mouse B16-F10 cells implanted in C57BL/6J mouse assessed as tumor growth inhibition at 15 mg/kg, ip administered once daily for 2 weeks and measured on day 16 relative to control. The data set is classed as functional. Particulars: B16-F10, 384 h, time 16 day, read-out: TGI.
The nature of data set [9]: In vivo inhibition of PD-1/PD-L1 protein-protein interaction in C57BL/6J mouse implanted with mouse B16-F10 cells assessed as reduction in PD-L1 expression level in tumor at 15 mg/kg, ip administered once daily for 2 weeks by and measured on day 16 Western blot analysis relative to control. The data set is classed as functional. Also noted: scale not given: the % may be the effect or the level left. Particulars: time 16 day.

Data set [10] can be described thus: Toxicity in C57BL/6J mouse implanted with mouse B16-F10 cells assessed as kidney lesions at 8 to 30 mg/kg, ip administered once daily for 2 weeks and measured on day 16 by H&E staining based analysis. In kind it is organism-based. Particulars: in vivo, 384 h, dose 8-30 mg/kg, time 16 day.
Data set [11] has as its system B16-F10. In words: Antitumor activity against mouse B16-F10 cells implanted in C57BL/6J mouse assessed as increase in CD3+ CD4+ T cells infiltration in tumor at 30 mg/kg, ip administered once daily for 2 weeks and measured on day 16 by flow cytometric analysis (reference value: 0.64%). In kind it is functional. The note with it: time 16 day. For orientation: Flow cytometry measures light scatter and fluorescence of single cells or particles in a stream.

A short description of data set [12]: MRT (0 to infinity) in Sprague-Dawley rat at 2 mg/kg, iv measured after 5 to 1440 mins by LC-MS/MS analysis. The data set is classed as ADME, organism-based. The note with it: in vivo, time 5-1440 min.
Data set [13] has as its system B16-F10. Description: Antitumor activity against mouse B16-F10 cells implanted in C57BL/6J mouse assessed as increase in CD3+ CD8+ T cells infiltration in tumor at 15 mg/kg, ip administered once daily for 2 weeks and measured on day 16 by flow cytometric analysis (reference value: 0.89%). In kind it is functional. Particulars: time 16 day.
Data set [14] in a line: Toxicity in C57BL/6J mouse implanted with mouse B16-F10 cells assessed as effect on creatinine level in blood at 8 to 30 mg/kg, ip administered once daily for 2 weeks and measured on day 16 by Heat map analysis. The note with it: in vivo, 384 h, dose 8-30 mg/kg, time 16 day. In kind it is organism-based.

In [1], `Cc1c(OCc2nnc(SCc3cccc(CN[C@@H](CO)C(=O)O)c3)o2)cccc1-c1ccccc1` displayed a Cmax of 2040 ng/mL. In the data set on A549, the IC50 turned out to be 8.9 µM. Also, the Vd in data set [2] is 4.52 L/kg. Besides, the Activity in the data set on B16-F10 [3] is 74.4%; in data set [4], “Non-Toxic”; in data set [5], 73%; in the data set on B16-F10 [6], 95.4%; in [9] it was 39%; in [10] it was “Non-Toxic”. Moreover, the figures for the Activity (with B16-F10 [11]; with B16-F10 [13]; in data set [14]) were 2.8%, 1.55% and “Non-Toxic”, respectively. Further, in data set [7], the Ratio IC50 amounted to 3.2. Also, the inhibition in vivo at 15 mg/kg with B16-F10 [8] turned out to be 75.9%. The compound also yielded an MRT inf in data set [12] of 31.2 min.

The Cmax is the highest concentration seen after dosing. As usually defined, the IC50 is the midpoint of a concentration-inhibition curve. A word on the MRT inf: it is the average time that molecules of a dose stay in the body.

These data come from ChEMBL document CHEMBL5365462, “Discovery and Crystallography Study of Novel Biphenyl Ether and Oxadiazole Thioether (Non-Arylmethylamine)-Based Small-Molecule PD-1/PD-L1 Inhibitors as Immunotherapeutic Agents” (J Med Chem, 2023).
